Test results from patent publication US20100234243A1, “PTU COMPOUNDS FOR PROMOTING THE IN VITRO CULTURE OF (HIGHLY PIGMENTED) MELANOCYTES” (L'OREAL, priority 2004, published 2010).

Tests used:
Format in all cases: cell-based, human
[1] = tested on: melanocytes of phototype VI (African); assay: Determination of the non-cytotoxic concentration of PTU (cell adherence, observed under a microscope); settings: for adherent cells (viability): primary culture without PTU 80%
Protocol: a) Preparation of a Primary Culture of […] Melanocytes: The melanocytes were obtained from a foreskin of a child according to the following protocol: the skin is cut into fragments of 6 mm and incubated at +4° C. overnight in the presence of 0.25% trypsin. The epidermis is then separated from the dermis in foetal calf serum. The pieces of dermis are scraped in order to recover the basal cells and the melanocytes. The epidermal fragments are then vortexed and the cells are then centrifuged at […] for 5 min. These cells (mixture of melanocytes and keratinocytes) are counted and seeded at a density of 8 to 15×10^6 cells per 75 cm^2 flask, in 18 to 20 ml of M2 medium (Promocell). The melanocytes are then purified according to the following protocol: the culture medium is changed 3 times a week and when the cells are confluent, the flasks are emptied and rinsed once with PBS-Ca^2+Mg^2+. 3 ml of trypsin-EDTA are then added per flask and the flasks are incubated at ambient temperature for 3-4 min: the melanocytes detach whereas the keratinocytes remain attached to the flask. An equivalent volume of M2 medium is added and the detached cells are counted and seeded at a density of 10^6 cells per 75 cm^2 flask, in 18 to 20 ml of M2 medium (Promocell). A primary culture of […] human melanocytes is thus obtained. The trypsinization is repeated when the melanocytes reach confluency (passage 1 et seq.). The melanocytes in the primary culture are 80% viable, i.e., 80% of the melanocytes adhere to the flask. b) Determination of the Non-Cytotoxic Concentration of PTU: Reversible Effect: Part of the primary culture of melanocytes is treated with PTU (Sigma) at the concentrations of 5 μM, 10 μM and 50 μM, at passage 2/3 or preferably from the first passage. The cytotoxicity of the effect of the PTU is evaluated by observing the cells under a microscope.

[2] = tested on: melanocytes of phototype VI (African); assay: Pigmentation (luminance L*) and melanogenesis inhibition in melanocyte cultures
Protocol: The pigmentation of the melanocytes of phototype VI (African), treated with 10 μM PTU or not treated, is measured by the value L* (luminance) of the cultures given by the spectrocolorimeter (FIG. 1). […] Melanin synthesis is decreased during treatment and becomes normal again in the absence of treatment. The IC50 of PTU (i.e., the concentration of PTU for which 50% inhibition of melanogenesis is observed compared with the control on cultures of melanocytes of phototype VI (African), is evaluated from 50 μM to 100 μM.

[3] = tested on: melanocytes of phototype VI (African); assay: Effect of PTU on proliferation of melanocytes (amount of cells obtained per passage)
[4] = tested on: melanocytes of phototype VI (African); assay: Viability of melanocytes after freezing, thawing and re-culturing; settings: PTU 10 μM before freezing; non-treated 5%
Protocol: They are then centrifuged and the pellet is resuspended in foetal calf serum+10% DMSO at a concentration of 10^6 cells/ml. The cells are frozen in cryotubes at −80° C. After 24 h, the tubes are transferred into liquid nitrogen at −196° C. For the thawing, the tubes are placed in a water bath at 37° C. and, after rapid thawing, 5 ml of M2 medium are added. The cells are centrifuged at 190 g for 5 min, the pellet is resuspended in M2 medium, and the cells are seeded into a flask and re-cultured under the conditions described in a).

[5] = tested on: melanocytes of phototype VI (African) in reconstructed epidermis; assay: Functionality of PTU-multiplied melanocytes in reconstructed epidermis (DOPA reaction, Fontana-Masson staining); settings: melanocytes multiplied beforehand with 5 μM or 10 μM PTU, treatment stopped
Protocol: The support is rinsed in the culture medium and then possibly coated with collagen type IV, fibronectin or laminin, for example. After contact at +4° C. overnight, the keratinocytes and the melanocytes of phototype VI (African) multiplied beforehand in the presence of 5 μM or 10 μM PTU, as described in Example 1, are then seeded onto said support. The culture can then be maintained immersed in a medium for keratinocytes in the presence of growth factor. After an incubation time of 3 to 5 days, the skin equivalent of phototype VI (African) undergoing formation is maintained at the air/liquid interface, for example by deposition onto a metal screen or removal of the culture medium present at the surface of an insert. The liquid then preferentially consists of the same nutritive medium as the previous one, but in which the growth factors have been reduced. The incubation then continues until a skin equivalent of phototype VI (African) is obtained. Thus, the incubation continues for a period of from 5 to 30 days, preferentially from 7 to 10 days. The reconstructed skin model of phototype VI (African) thus produced comprises two entities, the support, dermal equivalent, and the epidermal equivalent, which can be physically separated from one another. […] This enzyme is responsible for the oxidation of tyrosine to […] (DOPA) and then for the oxidation of DOPA to DOPA-quinone. […]

[6] = tested on: epidermis reconstructed from melanocytes of phototype VI (African); assay: Depigmenting activity on reconstructed epidermis (luminance L* by colorimeter); settings: 100 μM, topical, 3 applications for 5 days; FIG. 3
Protocol: The epidermis reconstructed from melanocytes of phototype VI (African), prepared under the conditions of Example 2, is used to screen the depigmenting activity of active agents.
The test products—arbutin at 100 μM and vitamin C phosphate at 280 μM—are applied topically to said reconstructed epidermis: 3 applications (3 μM/sample) for 5 days from the 5th day of immersion.
Vitamin C phosphate at 280 μM is also applied systemically, i.e., in the culture medium, throughout the duration of the epidermal reconstruction.
The control is the measurement of luminance of the reconstructed epidermis in the absence of test product.
On epidermis reconstructed on BPER (Episkin®), since the dermal support is translucent, it cannot be evaluated directly on the samples. The latter are therefore de-epidermalized and then digested with a solution of proteinase K. The lysates obtained are filtered on DEAE cellulose, which retains the melanin. The luminance is then measured on the filter.
The luminance L*, or lightness, of the sample is measured using a colorimeter. The darker a sample is, the weaker its luminance.

[7] = PTU 5 μM or 10 μM added at passage 2/3, non-treated cells multiply 2-fold
[8] = PTU 10 μM added at passage 4/5, non-treated control factor of 2

| Compound | adherent cells (viability) ([1]; PTU 5 μM) [%] | adherent cells (viability) ([1]; PTU 10 μM) [%] | cytotoxicity on melanocytes from African individuals ([1]; PTU 50 μM, most of the cells detach) | IC50 ([2]; Homo sapiens, Melanocyte, cultures of melanocytes of phototype VI (African), read-out: IC50, concentration for 50% inhibition of melanogenesis compared with the control) [µM] | amount of pigment in the melanocytes (luminance L*) ([2]; PTU 10 μM, effect reversible when treatment is stopped, FIG. 1) | amount of pigment excreted by the melanocytes into the medium ([2]; after PTU treatment) | multiplication of melanocytes ([3]; PTU 5 μM instead of 10 μM, treated from the first passage) | factor of stimulation of multiplication at passage 8 [3, 7] | factor of stimulation of multiplication at passage 9 [3, 7] | multiplication factor of treated cells at passage 8 [3, 8] | multiplication factor of treated cells at passage 9 [3, 8] | percentage viability during multiplication ([3]; PTU 10 μM, non-treated control 80%) [%] | viable melanocytes after freezing, thawing and re-culturing [4] [%] | DOPA assay (tyrosinase DOPA-oxidase activity) of treated melanocytes [5] | integration of treated melanocytes into the reconstructed epidermis [5] | increase in luminance versus control [6] |
| --- | --- | --- | --- | --- | --- | --- | --- | --- | --- | --- | --- | --- | --- | --- | --- | --- |
| S=C(Nc1ccccc1)Nc1nccs1 [PTU, 1-phenyl-3-(2-thiazolyl)-2-thiourea] | 95 | 95 | cytotoxic | 50 to 100 | decreases the amount of pigment in the melanocytes | reduced | results of the same order of magnitude | 5 | 15 | 5 | 15 | 95 | 80 | reactive | integrate into the reconstructed epidermis |  |
| OC[C@H]1O[C@@H](Oc2ccc(O)cc2)[C@H](O)[C@@H](O)[C@@H]1O [arbutin] |  |  |  |  |  |  |  |  |  |  |  |  |  |  |  | 1.8 points of L* |
